# Test results reported in patent EP4603107A1, “BIOORTHOGONAL, ANILINIUM BASED CLEAVABLE TETRAZINES” (University of Copenhagen, priority 2024, dated 2025).
# Tests used:
# [1] = Chemical stability in PBS (HPLC); type: physicochemical; conditions: HPLC at RT, 9:1 PBS/MeCN solution, 1.0-1.5 mM Tz, 254 nm; read-out: PBS stability t1/2
# Procedure: Ten tetrazines of formula (I) (Table 2) were tested in relation to chemical stability in PBS. The results are shown in Table 2 for the chemical half-life was measured by HPLC at RT, in 9:1 PBS/MeCN solution, using 1.0-1.5 mM Tz (a); based on average peak intensities of the corresponding Tz and the corresponding oxadiazoles (the degradation product), at 254 nm.
# [2] = Click kinetics, stopped-flow measurement of tetrazine ligation with equatorial TCO-PEG4; conditions: PBS (10mM), 37 °C, TCO 1 mM, tetrazine 100 µM, absorbance at 535 nm
# Procedure: Nine tetrazines of formula (I) (Table 1) were clicked with equatorial TCO-PEG4 (rel-(1R-4E-pR)-cyclooct-4-en-1-yl (2-(2-(2-(2-hydroxyethoxy)ethoxy)ethoxy)ethyl)carbamate).
# Stopped-flow measurements were performed using an SX20-LED stopped-flow spectrophotometer (Applied Photophysics) equipped with a 535 nm LED (optical pathlength 10 mm, full width half-maximum 34 nm) to monitor the characteristic tetrazine visible light absorbance (520-540 nm).
# A stock solution of eqTCO-PEG4 in DMSO was prepared at an approximate concentration above 100 mM. The exact concentration was determined by absorbance titration with 3,6-di-2-pyridyl-1,2,4,5-tetrazine. Stock solutions of tetrazines in DMSO were prepared at a concentration of 10 mM. These initial stock solutions were diluted into PBS (10mM) before stopped-flow analysis to reach a final TCO concentration of 1 mM and a tetrazine concentration of 100 µM. The reagent syringes were loaded with solutions of the Tz and eqTCO-PEG4, and the instrument was primed. Subsequent data were collected in triplicate to sextuplicate for each tetrazine. Reactions were conducted at 37 °C and recorded automatically at the time of acquisition. Data sets were analyzed by fitting an exponential decay using Prism 6 (Graphpad) to calculate the observed pseudo-first-order rate constants that were converted into second-order rate constants by dividing with the concentration of the excess TCO compound. Table 1: second rate order constant (M-1s-1) for the ligation between nine tetrazines and equatorial TCO-PEG4 (rel-(1R-4E-pR)-cyclooct-4-en-1-yl (2-(2-(2-(2-hydroxyethoxy)ethoxy)ethoxy)ethyl)carbamate).
structure (smiles),measurement,setting,value
"COc1cccc(-c2nnc(C[N+](C)(C)c3ccccc3)nn2)c1.[Br-] [Compound 19, N-((6-(3-methoxyphenyl)-1,2,4,5-tetrazin-3-yl)methyl)-N,N-dimethylbenzenaminium bromide]",half-life,[1],0.803 ± 0.00833 h
same,second order rate constant,[2],790 M⁻¹ s⁻¹
"C[N+](C)(Cc1nnc(-c2ccc(F)cc2)nn1)c1ccccc1.[Br-] [Compound 20, N-((6-(4-fluorophenyl)-1,2,4,5-tetrazin-3-yl)methyl)-N,N-dimethylbenzenaminium bromide]",half-life,[1],0.797 ± 0.0583 h
same,second order rate constant,[2],580 M⁻¹ s⁻¹
"C[N+](C)(Cc1nnc(-c2ccccc2)nn1)c1ccccc1.[Br-] [Compound 21, N,N-dimethyl-N-((6-phenyl-1,2,4,5-tetrazin-3-yl)methyl)benzenaminium bromide]",half-life,[1],0.9667 ± 0.00833 h
same,second order rate constant,[2],650 M⁻¹ s⁻¹
"Cc1ccc(-c2nnc(C[N+](C)(C)c3ccccc3)nn2)cc1.[Br-] [Compound 22, N,N-dimethyl-N-((6-(p-tolyl)-1,2,4,5-tetrazin-3-yl)methyl)benzenaminium bromide]",half-life,[1],1.783 ± 0.0167 h
same,second order rate constant,[2],480 M⁻¹ s⁻¹
"COc1ccc(-c2nnc(C[N+](C)(C)c3ccccc3)nn2)cc1.[Br-] [Compound 23, N-((6-(4-methoxyphenyl)-1,2,4,5-tetrazin-3-yl)methyl)-N,N-dimethylbenzenaminium bromide]",half-life,[1],2.58 ± 0.683 h
same,second order rate constant,[2],370 M⁻¹ s⁻¹
"C[N+](C)(Cc1nnc(-c2ccc(O)cc2)nn1)c1ccccc1.[Br-] [Compound 24, N-((6-(4-hydroxyphenyl)-1,2,4,5-tetrazin-3-yl)methyl)-N,N-dimethylbenzenaminium bromide]",half-life,[1],4.95 ± 0.1 h
"Cc1ccc([N+](C)(C)Cc2nnc(-c3ccccc3)nn2)cc1.[Br-] [Compound 25, N,N,4-trimethyl-N-((6-phenyl-1,2,4,5-tetrazin-3-yl)methyl)benzenaminium bromide]",half-life,[1],1.15 ± 0.1 h
same,second order rate constant,[2],620 M⁻¹ s⁻¹
"COc1ccc([N+](C)(C)Cc2nnc(-c3ccccc3)nn2)cc1.[Br-] [Compound 26, 4-methoxy-N,N-dimethyl-N-((6-phenyl-1,2,4,5-tetrazin-3-yl)methyl)benzenaminium bromide]",half-life,[1],1.87 ± 0.357 h
same,second order rate constant,[2],670 M⁻¹ s⁻¹
"C[N+](C)(Cc1nnc(-c2ccccc2)nn1)c1ccc(O)cc1.[Br-] [Compound 27, 4-hydroxy-N,N-dimethyl-N-((6-phenyl-1,2,4,5-tetrazin-3-yl)methyl)benzenaminium bromide]",half-life,[1],5.19 ± 1.15 h
same,second order rate constant,[2],620 M⁻¹ s⁻¹
"COc1ccc(-c2nnc(C[N+](C)(C)c3ccc(OC)cc3)nn2)cc1.[Br-] [Compound 29, 4-methoxy-N-((6-(4-methoxyphenyl)-1,2,4,5-tetrazin-3-yl)methyl)-N,N-dimethylbenzenaminium bromide]",half-life,[1],9.365 ± 0.0125 h
same,second order rate constant,[2],340 M⁻¹ s⁻¹
